Legend:
PBMC = assay: Metabolic stability in cathepsin A-overexpressing human PBMC assessed as compound degradation per ug of protein at 10 uM after 120 mins by scintillation counting; details: 2 h, 30 µM
[1] = Cytotoxicity against human MT2 cells after 5 days by XTT assay
[2] = Hydrolytic stability assessed as compound degradation per ug of protein at 10 uM after 90 mins by scintillation counting in presence of human recombinant cathepsin A; details: 1.5 h
[3] = tested on: Human immunodeficiency virus 1; assay: Antiviral activity against HIV1 3B infected in human MT2 cells assessed as inhibition of virus-induced cytopathic effect after 5 days by XTT assay; format: functional, organism-based
[4] = Half life in dog hepatocytes at 2 uM by LC/MS/MS analysis
[5] = Cytotoxicity against human HepG2 cells assessed as inhibition of mitochondrial DNA replication after 14 days; details: read-out: MTC50
[6] = Half life in human hepatocytes at 2 uM by LC/MS/MS analysis
Homo sapiens = species on record: Homo sapiens; assay: in vitro; details: plasma
[7] = Metabolic stability in dog plasma assessed as compound remaining after 60 mins
[8] = Clearance in iv dosed Beagle dog after 24 hrs; details: in vivo
[9] = Half life in dog intestine S9 fraction at 2 uM by LC/MS/MS analysis; details: intestine S9 fraction, t1/2
[10] = Human immunodeficiency virus 1, 3B, MT2, 120 h

CCC(CC)OC(=O)[C@H](C)NP(=O)(CO[C@@H]1C=C(F)[C@H](n2cnc3c(N)ncnc32)O1)Oc1ccccc1 (stereo partly specified)
Activity (PBMC): 0 pmol/min
CC50 at 120 h [1]: 8350 nM
Activity [2]: 0 pmol/min
EC50 [3, 10]: 662 nM

CC[C@H](NP(=O)(CO[C@@H]1C=C(F)[C@H](n2cnc3c(N)ncnc32)O1)N[C@@H](CC)C(=O)OCC(C)C)C(=O)OCC(C)C
Activity (PBMC): 1.3 pmol/min
Activity [2]: 867 pmol/min
half-life at 2 µM [4]: 1.18 h
EC50 [3, 10]: 128 nM

C[C@H](NP(=O)(CO[C@@H]1C=C(F)[C@H](n2cnc3c(N)ncnc32)O1)Oc1ccccc1)C(=O)OCC1CC1 (stereo partly specified)
EC50 [3, 10]: 59 nM

CC(C)OC(=O)[C@H](Cc1ccccc1)NP(=O)(CO[C@@H]1C=C(F)[C@H](n2cnc3c(N)ncnc32)O1)Oc1ccccc1 (stereo partly specified)
EC50 [3, 10]: 63 nM

CCOC(=O)[C@H](C)NP(=O)(CO[C@@H]1C=C(F)[C@H](n2cnc3c(N)ncnc32)O1)Oc1ccccc1 (stereo partly specified) [listing 1 of 2 here]
EC50 ([3]; mt2): 262 nM

Nc1ncnc2c1ncn2[C@@H]1O[C@H](OCP(=O)(N[C@@H](Cc2ccccc2)C(=O)OC2CCC2)Oc2ccccc2)C=C1F (stereo partly specified)
EC50 [3, 10]: 20 nM

CCCOC(=O)[C@H](C)NP(=O)(CO[C@@H]1C=C(F)[C@H](n2cnc3c(N)ncnc32)O1)N[C@@H](C)C(=O)OCCC
EC50 [3, 10]: 1060 nM

CCOC(=O)[C@H](C)NP(=O)(CO[C@@H]1C=C(F)[C@H](n2cnc3c(N)ncnc32)O1)N[C@@H](C)C(=O)OCC
EC50 [3, 10]: 723 nM

CCOC(=O)[C@H](Cc1ccccc1)NP(=O)(CO[C@@H]1C=C(F)[C@H](n2cnc3c(N)ncnc32)O1)N[C@@H](Cc1ccccc1)C(=O)OCC
Activity (PBMC): 40 pmol/min
Activity [2]: 41020 pmol/min
EC50 [3, 10]: 8.9 nM

CC(C)OC(=O)CNP(=O)(CO[C@@H]1C=C(F)[C@H](n2cnc3c(N)ncnc32)O1)NCC(=O)OC(C)C
EC50 [3, 10]: > 2000 nM

C[C@H](Cn1cnc2c(N)ncnc21)OCP(=O)(O)O [TENOFOVIR ANHYDROUS]
CC50 at 120 h [1]: > 50000 nM
CC50 at 336 h [5]: 3600 nM
EC50 [3, 10]: 13 nM

CCCOC(=O)[C@H](Cc1ccccc1)NP(=O)(CO[C@@H]1C=C(F)[C@H](n2cnc3c(N)ncnc32)O1)Oc1ccccc1 (stereo partly specified)
EC50 [3, 10]: 4.9 nM

CCOC(=O)[C@H](C)NP(=O)(CO[C@@H]1C=C(F)[C@H](n2cnc3c(N)ncnc32)O1)Oc1ccccc1 (stereo partly drawn) [(2S)-ETHYL 2-((((2R,5R)-5-(6-AMINO-9H-PURIN-9-YL)-4-FLUORO-2,5-DIHYDROFURAN-2-YLOXY)METHYL)(PHENOXY)PHOSPHORYLAMINO)PROPANOATE (ENANTIOMERIC MIX)]
EC50 ([3]; mt2): 96 nM

CC(C)COC(=O)[C@H](C)NP(=O)(CO[C@@H]1C=C(F)[C@H](n2cnc3c(N)ncnc32)O1)Oc1ccccc1 (stereo partly specified)
EC50 [3, 10]: 58 nM

Nc1ncnc2c1ncn2[C@@H]1O[C@H](OCP(=O)(N[C@@H](Cc2ccccc2)C(=O)OCC2CC2)Oc2ccccc2)C=C1F (stereo partly specified)
Activity (PBMC): 41 pmol/min
CC50 at 120 h [1]: > 100000 nM
Activity [2]: 39270 pmol/min
half-life at 2 µM ([6]; t1/2): 0.667 h
half-life at 2 µM ([4]; t1/2): 0.283 h
EC50 [3, 10]: 7.5 nM

CC[C@H](NP(=O)(CO[C@@H]1C=C(F)[C@H](n2cnc3c(N)ncnc32)O1)Oc1ccccc1)C(=O)OCC(C)C (stereo partly specified)
Activity (PBMC): 1.9 pmol/min
CC50 at 120 h [1]: > 100000 nM
Activity [2]: 728 pmol/min
half-life at 2 µM ([4]; t1/2): 2.12 h
EC50 [3, 10]: 103 nM

CCCCCOC(=O)[C@H](C)NP(=O)(CO[C@@H]1C=C(F)[C@H](n2cnc3c(N)ncnc32)O1)Oc1ccccc1 (stereo partly specified)
Activity (PBMC): 6.7 pmol/min
CC50 at 120 h [1]: 27000 nM
Activity [2]: 5088 pmol/min
half-life at 2 µM ([4]; t1/2): 0.95 h
EC50 [3, 10]: 33 nM

CC(C)COC(=O)[C@H](Cc1ccccc1)NP(=O)(CO[C@@H]1C=C(F)[C@H](n2cnc3c(N)ncnc32)O1)OCC(F)(F)F (stereo partly specified)
Activity (PBMC): 22 pmol/min
CC50 at 120 h [1]: > 100000 nM
Activity [2]: 30107 pmol/min
half-life at 2 µM [4]: 0.45 h
EC50 [3, 10]: 119 nM

CCCCOC(=O)[C@H](C)NP(=O)(CO[C@@H]1C=C(F)[C@H](n2cnc3c(N)ncnc32)O1)N[C@@H](C)C(=O)OCCCC
remaining at 1 h (Homo sapiens): 96%
Activity (PBMC): 18 pmol/min
CC50 at 120 h [1]: 51000 nM
Activity [2]: 17355 pmol/min
half-life at 2 µM [4]: 0.8 h
EC50 [3, 10]: 68 nM
remaining at 1 h [7]: 100%
clearance at 24 h [8]: 53.7 mL/min/kg

CCCOC(=O)[C@H](C)NP(=O)(CO[C@@H]1C=C(F)[C@H](n2cnc3c(N)ncnc32)O1)Oc1ccccc1 (stereo partly specified)
Activity (PBMC): 26 pmol/min
CC50 at 120 h [1]: 31000 nM
Activity [2]: 19103 pmol/min
half-life at 2 µM ([4]; t1/2): 1.47 h
EC50 [3, 10]: 52 nM

CC(C)COC(=O)CNP(=O)(CO[C@@H]1C=C(F)[C@H](n2cnc3c(N)ncnc32)O1)Oc1ccccc1 (stereo partly specified)
Activity (PBMC): 0.72 pmol/min
CC50 at 120 h [1]: 22000 nM
Activity [2]: 226 pmol/min
EC50 [3, 10]: 1120 nM

CCOC(=O)[C@H](C)NP(=O)(CO[C@@H]1C=C(F)[C@H](n2cnc3c(N)ncnc32)O1)OCC(F)(F)F (stereo partly specified)
Activity (PBMC): 0.69 pmol/min
CC50 at 120 h [1]: > 100000 nM
Activity [2]: 1132 pmol/min
half-life at 2 µM [6]: 3.08 h
half-life at 2 µM [4]: 1.43 h
EC50 [3, 10]: 1050 nM

C[C@H](NP(=O)(CO[C@@H]1C=C(F)[C@H](n2cnc3c(N)ncnc32)O1)Oc1ccccc1)C(=O)OC1CCCC1 (stereo partly specified)
Activity (PBMC): 3 pmol/min
CC50 at 120 h [1]: > 100000 nM
Activity [2]: 5688 pmol/min
EC50 [3, 10]: 63 nM

CCCOC(=O)[C@H](Cc1ccccc1)NP(=O)(CO[C@@H]1C=C(F)[C@H](n2cnc3c(N)ncnc32)O1)N[C@@H](Cc1ccccc1)C(=O)OCCC
Activity (PBMC): 20 pmol/min
Activity [2]: 27642 pmol/min
EC50 [3, 10]: 5.2 nM

CC(C)COC(=O)[C@H](C)NP(=O)(CO[C@@H]1C=C(F)[C@H](n2cnc3c(N)ncnc32)O1)N[C@@H](C)C(=O)OCC(C)C
Activity (PBMC): 2.1 pmol/min
CC50 at 120 h [1]: > 100000 nM
Activity [2]: 1770 pmol/min
half-life at 2 µM [4]: 3.22 h
EC50 [3, 10]: 119 nM

CC[C@H](NP(=O)(CO[C@@H]1C=C(F)[C@H](n2cnc3c(N)ncnc32)O1)N[C@@H](CC)C(=O)OC(C)C)C(=O)OC(C)C
remaining at 1 h (Homo sapiens): 100%
Activity (PBMC): 0.05 pmol/min
Activity [2]: 0 pmol/min
half-life at 2 µM [4]: 11.5 h
EC50 [3, 10]: > 2000 nM
remaining at 1 h [7]: 100%

CCCCSC(=O)[C@@H](Cc1ccccc1)NP(=O)(CO[C@@H]1C=C(F)[C@H](n2cnc3c(N)ncnc32)O1)Oc1ccccc1 (stereo partly specified)
Activity (PBMC): 2.1 pmol/min
CC50 at 120 h [1]: > 100000 nM
Activity [2]: 1510 pmol/min
half-life at 2 µM ([4]; t1/2): 0.933 h
EC50 [3, 10]: 141 nM

Nc1ncnc2c1ncn2[C@@H]1O[C@H](OCP(=O)(N[C@@H](Cc2ccccc2)C(=O)OCC2CCC2)Oc2ccccc2)C=C1F (stereo partly specified)
half-life at 2 µM [9]: 3.4 min
Activity (PBMC): 24 pmol/min
CC50 at 120 h [1]: 46500 nM
Activity [2]: 37017 pmol/min
half-life at 2 µM ([6]; t1/2): 1.03 h
half-life at 2 µM ([4]; t1/2): 0.383 h
EC50 [3, 10]: 3.8 nM

C[C@H](NP(=O)(CO[C@@H]1C=C(F)[C@H](n2cnc3c(N)ncnc32)O1)Oc1ccccc1)C(=O)OCC1CCC1 (stereo partly specified)
EC50 [3, 10]: 25 nM

CCCCOC(=O)[C@H](CC)NP(=O)(CO[C@@H]1C=C(F)[C@H](n2cnc3c(N)ncnc32)O1)N[C@@H](CC)C(=O)OCCCC
remaining at 1 h (Homo sapiens; Stability): 99%
Activity (PBMC): 1.3 pmol/min
CC50 at 120 h [1]: > 100000 nM
Activity [2]: 1872 pmol/min
half-life at 2 µM ([4]; t1/2): 1.22 h
EC50 [3, 10]: 90 nM
remaining at 1 h ([7]; Stability): 100%

CCOC(=O)[C@H](C)NP(=O)(CO[C@@H]1C=C(F)[C@H](n2cnc3c(N)ncnc32)O1)Oc1ccccc1 (stereo partly specified) [listing 2 of 2 here]
EC50 ([3]; mt2): 157 nM

CC(C)OC(=O)[C@H](C)NP(=O)(CO[C@@H]1C=C(F)[C@H](n2cnc3c(N)ncnc32)O1)Oc1ccccc1 (stereo in doubt; 18s) [(2S)-ISOPROPYL 2-(((2R,5R)-5-(6-AMINO-9H-PURIN-9-YL)-4-FLUORO-2,5-DIHYDROFURAN-2-YLOXY)(PHENOXY)PHOSPHORYLAMINO)PROPANOATE (ENANTIOMERIC MIX)]
Activity (PBMC): 0.3 pmol/min
Activity [2]: 216 pmol/min
half-life at 2 µM ([4]; t1/2): 1.47 h
EC50 ([3]; mt2): 728 nM

CCOC(=O)[C@H](C)OP(=O)(CO[C@@H]1C=C(F)[C@H](n2cnc3c(N)ncnc32)O1)Oc1ccccc1 (stereo partly specified)
EC50 [3, 10]: 2000 nM

CCCCOC(=O)[C@H](Cc1ccccc1)NP(=O)(CO[C@@H]1C=C(F)[C@H](n2cnc3c(N)ncnc32)O1)N[C@@H](Cc1ccccc1)C(=O)OCCCC
Activity (PBMC): 50 pmol/min
CC50 at 120 h [1]: 4800 nM
Activity [2]: 66680 pmol/min
half-life at 2 µM [4]: 0.167 h
EC50 [3, 10]: 8.4 nM

CCCCOC(=O)[C@H](C)NP(=O)(CO[C@@H]1C=C(F)[C@H](n2cnc3c(N)ncnc32)O1)Oc1ccccc1 (stereo partly specified)
Activity (PBMC): 7.3 pmol/min
CC50 at 120 h [1]: 91000 nM
Activity [2]: 6183 pmol/min
half-life at 2 µM ([4]; t1/2): 1.05 h
EC50 [3, 10]: 92 nM

CCCCOC(=O)[C@H](CC)NP(=O)(CO[C@@H]1C=C(F)[C@H](n2cnc3c(N)ncnc32)O1)Oc1ccccc1 (stereo partly specified)
Activity (PBMC): 1.4 pmol/min
CC50 at 120 h [1]: 70000 nM
Activity [2]: 1377 pmol/min
half-life at 2 µM ([4]; t1/2): 1.52 h
EC50 [3, 10]: 88 nM

CC(C)COC(=O)CNP(=O)(CO[C@@H]1C=C(F)[C@H](n2cnc3c(N)ncnc32)O1)NCC(=O)OCC(C)C
Activity (PBMC): 0 pmol/min
CC50 at 120 h [1]: > 100000 nM
Activity [2]: 0 pmol/min
EC50 [3, 10]: 1610 nM

— ChEMBL document CHEMBL1157759, “Discovery of GS-9131: Design, synthesis and optimization of amidate prodrugs of the novel nucleoside phosphonate HIV reverse transcriptase (RT) inhibitor GS-9148” (Bioorg Med Chem, 2010)
